One assay deals with HT-29. The assay is described as follows: Cytotoxicity against human HT-29 cells. It is filed as functional, cell-based.
The next assay relates to P388. The experiment in a line: Cytotoxicity against mouse P388 cells. The format is functional, cell-based.

SMILES strings stand for the structures. The source made the active and inactive calls. The rule behind the calls is not given here.

We go through twelve molecules from ChEMBL document CHEMBL1158779, “Sulfur-containing polybromoindoles from the Formosan red alga Laurencia brongniartii” (J Nat Prod, 2005).

Turning to `CSc1[nH]c2cc(Br)c(Br)c(Br)c2c1SC`, the result with HT-29 and in the assay on P388 was inactive.

As for `CSc1c([S+](C)[O-])[nH]c2cc(Br)cc(Br)c12` (centres undefined), the outcome in the assay with HT-29 and in the assay with P388 was inactive.

For `CSc1[nH]c2cc(Br)cc(Br)c2c1-c1c(SC)[nH]c2cc(Br)cc(Br)c12`, the outcome in the assay with HT-29 and with P388 was inactive.

In the case of `CSc1cc2c(Br)cc(Br)cc2[nH]1`, the outcome with HT-29 and in the assay with P388 was inactive.

Regarding `C[S+]([O-])c1c(Br)[nH]c2cc(Br)cc(Br)c12` (centres undefined), the outcome in the assay on HT-29 and in the assay on P388 was inactive.

`CSc1c(Br)[nH]c2cc(Br)cc(Br)c12`: the result in the assay on HT-29 and with P388 was inactive.

On to `CSc1[nH]c2cc(Br)cc(Br)c2c1SC`, for which the result with HT-29 and in the assay with P388 was inactive.

Take `C[S+]([O-])c1[nH]c2cc(Br)cc(Br)c2c1[S+](C)[O-]` (centres undefined): the outcome with HT-29 and in the assay with P388 was inactive.

With `C[S+]([O-])c1[nH]c2cc(Br)cc(Br)c2c1-c1c([S+](C)[O-])[nH]c2cc(Br)cc(Br)c12` (centres undefined), the result with HT-29 was inactive. For the same molecule, in the assay with P388, the outcome was Active.

Consider `CSc1c([S+](C)[O-])[nH]c2cc(Br)c(Br)c(Br)c12` (centres undefined), for which the result with HT-29 and in the assay with P388 was inactive.

As to `CSc1c(Br)[nH]c2cc(Br)c(Br)c(Br)c12`, the outcome in the assay with HT-29 and in the assay with P388 was inactive.

With `CSc1[nH]c2cc(Br)cc(Br)c2c1-c1c([S+](C)[O-])[nH]c2cc(Br)cc(Br)c12` (centres undefined), the result in the assay on HT-29 and with P388 was Active.
